How the values were obtained:
[1] = test system: human aortic smooth muscles cells (ASMC); assay: DNA laddering assay; format: cell-based; details: ApoCI or ApoCIII 2.5 μg/mL, TNF-α positive control
Method: FIGS. 1A-1C depict the effect of apolipoproteins on apoptosis in human aortic smooth muscles cells (ASMC). ASMC were grown on sterilized glass cover slips and incubated for 24 hours with media alone (control), ApoCIII (negative control, 2.5 μg/mL medium), ApoCI (2.5 μg/mL medium), ApoCI-enriched HDL (1 μg apoA-I/mL medium), or ApoCI-poor HDL (5 μg apoA-I/mL medium) for 24 hours. Cells were then fixed with ethanol-acetic acid (3:1 volume/volume) and washed 3 times with phosphate-buffered saline. The cells were then stained with DAPI reagent, mounted on a glass cover slide, and subjected to fluorescence microscopy. FIG. 1A: The nucleus of normal cells stains blue and the nucleus of apoptotic cells stains is fragmented white. FIG. 1B: 300 to 500 cells in each sample were counted and the percent of apoptotic cells was plotted. Values are mean±SD; **P<0.01, ***P<0.001. FIG. 1C: DNA ladder assay. Confluent cultures of ASMC were incubated with control medium alone, ApoCI (2.5 μg/mL medium), ApoCIII (negative control, 2.5 μg/mL medium), and TNF-α (positive control, 20 ng/mL medium). Genomic DNA was extracted and 10 μg DNA was subjected to agarose gel electrophoresis. The gels were calibrated with commercially available DNA standards. After electrophoresis, the gels were stained with ethidium bromide and then photographed.
Cells were treated with either TNF-α (30 ng/ml), ApoCI or ApoCIII (2.5 μg/ml) for 6 h. The cells were then washed twice with minimal essential medium and harvested with buffer (10 mM HEPES, pH 7.4. 5 mM EDTA, 0.25 mM EGTA, 50 mM NaF, 5 mM β-mercaptoethanol, 0.35 M sucrose, 0.1% Nonidet and protease inhibitors, 1 mM phenylmethylsulfonyl fluoride, 2 μg/ml leupeptin and 5 μg/ml pepstatin), and pelleted. Genomic DNA was prepared employing standard protocol. Genomic DNA was subjected to electrophoresis, stained with ethidium bromide and the gel was photographed. The gel was calibrated using DNA fragments of known molecular weight.

[2] = test system: ceramide; assay: Anti-ceramide antibody immunofluorescence microscopy in ASMC; format: cell-based, human; details: 24 h
Method: FIGS. 4A-4D depict the effect of ApoCI, ApoCI-enriched HDL, and ApoCI-poor HDL on the level of ceramide in ASMC. Confluent ASMC were incubated with ApoCI (2.5 μg/mL) with time (FIG. 4A, upper left) or with ApoCI-enriched HDL (1 μg apoA-I/mL medium) or ApoCI-poor HDL (5 μg apoA-I/mL medium) (FIG. 4B, upper right) for 30 minutes. FIG. 4C: The cells were incubated with ApoCI alone ([…]) for 5 minutes or preincubated with GW4869 (20 μmol/L) for 30 minutes. After addition of ApoCI (2.5 μg/mL), incubation was continued for 6 hours, 12 hours, and 24 hours. After incubation, cells were harvested and the levels of ceramide determined using the diacylglycerol kinase assay. The level of phosphate was measured and the data (mean±SD) were expressed as percentage of the total ceramide present in untreated cells (vehicle DMSO). *P<0.05. In a separate experiment (FIG. 4D, right), confluent cells were grown on cover slips and pretreated with serum-free medium for 30 minutes. The cells were then incubated with vehicle DMSO alone (control), ApoCI (2.5 μg/ML), or ApoCI (2.5 μg/mL) plus the N-SMase inhibitor GW4869 (20 μmol/L) for 24 hours. The cells were then washed, treated with a primary anticeramide antibody, washed with phosphate-buffered saline, and treated with a fluorescein isothiocyanate-conjugated anti-mouse IgG (FIG. 4C, lower panel).

[3] = test system: caveolin; assay: Western measurement of caveolin-I level in AoSMC; format: cell-based, human; details: ApoCI-treated cells
Method: (§1) Confluent cultures of AoSMC were preincubated with serum-free medium for 30 min and then treated with ApoCI (2.5 μg/ml medium), HMS (58.8 μg apoA-I/ml medium and 6.2 μg ApoCI/ml medium), and C2-Ceramide (30 μM). At indicated time periods cells were harvested in PBS and pellets lysed in 10 mM HEPES buffer (pH 7.4) 5 mM EDTA, 0.25 mM EGTA, 50 mM NaF, 0.35 M sucrose, 0.1% Nonidet P-40 and protease inhibitors 2 μg/ml aprotinin, 10 μg/ml leupeptin, 5 μg/ml pepstatin, and 1 mM PMSF. Protein concentration was determined using BCA-kit (Pierce, Rockford, Ill.). 100 μg of protein was subjected to electrophoresis in denaturing conditions on 4-15% polyacrylamide gel and electro transferred onto nitrocellulose (BioRad, Rochester, N.Y.). After the transfer, membranes were blocked for 1 h at room temperature in TBS-T/5% milk. Western assay was performed using rabbit caveolin-I (1:1000), SR-BI (1:5000) or goat ABCA1 (1:1000) primary antibody (Santa Cruz Biotechnology, Santa Cruz, Calif.) and horseradish peroxidase-conjugated anti-rabbit or anti-goat antibody (Amersham Pharmacia Biotech, Piscataway, N.J.). Blots were developed using ECL^plus Western blotting detection reagents (Amersham Pharmacia Biotech) and were scanned by laser densitometry. The intensity of the signals were quantified with the ImageGuant program (Molecular Dynamic, Sunnyvale, Calif.).

[4] = test system: ABC-A1; assay: Western measurement of ABC transporter ABCA1 level in AoSMC; format: cell-based, human; details: ApoCI-treated cells
Method: as §1

[5] = molecular target: T1, acid sphingomyelinase (Homo sapiens, UniProt P17405); assay: Acid sphingomyelinase activity in cultured human ASMC (specificity of GW4869); format: cell-based; details: with GW4869; control 400 nmol/mg protein; did not alter
T1 construct: acid sphingomyelinase activity (control: 400 nmol/mg protein; GW4869: 340 nmol/mg protein) in cultured human ASMC; host or cells: cultured human ASMC
T1 sequence (P17405 47-631): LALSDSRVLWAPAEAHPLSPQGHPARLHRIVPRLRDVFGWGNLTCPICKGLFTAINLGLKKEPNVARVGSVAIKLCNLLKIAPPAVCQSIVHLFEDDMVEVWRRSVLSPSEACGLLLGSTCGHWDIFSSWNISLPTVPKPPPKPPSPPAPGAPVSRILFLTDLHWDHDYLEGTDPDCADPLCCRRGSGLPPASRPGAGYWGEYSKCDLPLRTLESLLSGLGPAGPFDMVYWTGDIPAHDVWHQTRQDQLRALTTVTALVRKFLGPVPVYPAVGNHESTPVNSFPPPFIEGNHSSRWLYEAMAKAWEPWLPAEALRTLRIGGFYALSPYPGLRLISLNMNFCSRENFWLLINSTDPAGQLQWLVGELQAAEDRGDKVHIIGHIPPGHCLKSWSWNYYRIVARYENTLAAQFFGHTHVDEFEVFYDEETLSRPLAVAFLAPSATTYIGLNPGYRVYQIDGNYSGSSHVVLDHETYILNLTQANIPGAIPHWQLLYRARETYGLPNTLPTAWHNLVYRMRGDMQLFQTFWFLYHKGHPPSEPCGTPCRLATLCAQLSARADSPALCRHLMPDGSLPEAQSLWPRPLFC

Row | acid sphingomyelinase activity [5] [nmol/mg protein] | Compound | DNA laddering on agarose gel (FIG. 1C) [1] | anti-ceramide immunofluorescence of treated cells ([2]; ApoCI 2.5 μg/mL, compared with control cells) | level of caveolin [3] | cellular level of the ATP binding cassette (ABC-A1) protein [4] | effect of GW4869 on ApoCI-induced ceramide immunofluorescence ([2]; ApoCI 2.5 μg/mL plus GW4869 20 μmol/L)
1 |  | ApoCIII: purified human ApoCIII purchased from Academy Bio-Medical Company, used as negative control | did not exhibit significant DNA laddering |  |  |  | 
2 |  | Apolipoprotein C-I (TPDVSSALDKLKEFGNTLEDKARELISRIKQSELSAKMREWFSETFQKVKEKLKIDS; UniProt P02654 27-83, looked up) [ApoCI, 6.6-kDa single-chain plasma protein of 57 amino acids; purified human ApoCI purchased from Academy Bio-Medical Company] | exhibited DNA laddering | reacted strongly | did not alter | transiently and significantly decreased | 
3 | 340 | O=C(/C=C/c1ccc(/C=C/C(=O)Nc2ccc(C3=NCCN3)cc2)cc1)Nc1ccc(C2=NCCN2)cc1 [GW4869] |  |  |  |  | eliminated

Reference: US8614064B2, “Methods of diagnosing atherosclerosis by measuring ApoCI” (The Johns Hopkins University, priority 2003, dated 2013)
